Data on 2 compounds can be found in PMC11078216, “Discovery of potent and selective activity-based probes (ABPs) for the deubiquitinating enzyme USP30” (RSC Chemical Biology, 2024).

One test has as its target T1, USP30 (Homo sapiens, UniProt Q70CQ3).
T1 construct: Catalog #E-582 residues 57-517; purchased E-582
T1 sequence (Q70CQ3 57-517): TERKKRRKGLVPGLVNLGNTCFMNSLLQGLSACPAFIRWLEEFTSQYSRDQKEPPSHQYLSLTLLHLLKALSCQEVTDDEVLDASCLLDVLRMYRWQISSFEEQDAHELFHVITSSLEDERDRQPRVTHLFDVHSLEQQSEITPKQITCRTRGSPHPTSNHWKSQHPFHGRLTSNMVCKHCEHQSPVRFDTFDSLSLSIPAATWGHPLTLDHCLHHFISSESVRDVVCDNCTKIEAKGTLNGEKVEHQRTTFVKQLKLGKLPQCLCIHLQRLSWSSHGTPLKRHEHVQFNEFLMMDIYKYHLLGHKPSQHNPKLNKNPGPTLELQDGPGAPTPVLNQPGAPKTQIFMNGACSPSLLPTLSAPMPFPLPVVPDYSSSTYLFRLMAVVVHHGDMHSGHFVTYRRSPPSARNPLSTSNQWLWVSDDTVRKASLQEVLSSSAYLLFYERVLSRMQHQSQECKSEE
As to the kind of experiment: USP30 FP kinetic analysis (kobs/I, Ki, kinact) using Ub-Lys(TAMRA)-Gly. The format is biochemical. As to conditions: for kinact/KI: read-out: kobs/I. How it is done:
We further characterised inhibition kinetics for ABPs in a FP assay using Ub-Lys(TAMRA)-Gly. kobs/I, Ki and kinact determination assay was performed using 30 nM USP30 and 100 nM Ub-Lys(TAMRA)-Gly as described in ESI, ^† Section S3.1.c. FP was monitored kinetically over an hour after addition of the substrate, and response curves fitted to y = (vi/kobs) (1 − exp(−kobsx)) to calculate kobs/I, 5680 (95% Cl = 4723–6638) M^−1 s^−1 for IMP-2587, and 3021 (95% Cl = 2350–3693) M^−1 s^−1 for IMP-2586 (Fig. S1, ESI ^†).
4. Biochemical and biological methods and proteomics
1) Biochemical USP30 fluorescence polarisation (FP) assay using Ub-Lys(TAMRA)-Gly […]
USP30 was diluted in reaction buffer A (40 mM Tris, pH 7.5, 0.005% Tween 20, 0.5 mg/ml BSA, 5 mM betamercaptoethanol) and 10 μL of diluted 10.5 nM […]
b. USP30 biochemical kinetic assay
Reactions were performed in triplicate in black 384 well plates (small volume, Greiner 784076) in a final reaction volume of 20 ul. […]
Pherastar Plus (BMG Labtech). l Excitation 540 nm; l Emission 590 nm.
Inhibition kinetics for compound ABP 2 and ABP 4 were determined by preparing compound dilution plates at 21× final concentration in 50% DMSO in water. 50% DMSO (1 μL) or diluted compound (1 μL) was added to the reaction plate. Substrate Ub-TAMRA (200 nM, 10 μL) (final concentration: 100 nM) was prepared in buffer A described in section 3.1.a and added to the reaction plate. Reactions were initiated by the addition of USP30 (21 nM, 10 μL) (final concentration 10 nM), and fluorescence polarisation read immediately for 1 h in every 2 min. Analysis was performed in GraphPad Prism.
Kinetic progress curves were fitted to equation y = (vi/kobs) (1 − exp(−kobs*x)) to determine the kobs value (for first 30 min data). The kobs value was then plotted against the inhibitor concentration to […]

In a further test the target is T2, UCHL1 (Homo sapiens, UniProt P09936).
T2 sequence (P09936 1-223): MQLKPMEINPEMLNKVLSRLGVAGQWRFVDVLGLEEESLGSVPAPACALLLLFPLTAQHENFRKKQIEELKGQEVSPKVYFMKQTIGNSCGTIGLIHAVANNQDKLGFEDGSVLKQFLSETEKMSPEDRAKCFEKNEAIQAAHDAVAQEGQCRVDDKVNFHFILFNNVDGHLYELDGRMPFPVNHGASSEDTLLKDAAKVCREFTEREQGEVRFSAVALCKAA
As to the kind of experiment: Cross-screening against unrelated DUB UCHL1. As to conditions: Table S1, ESI. The format is biochemical.

[1] abbreviates: 30 nM USP30, 100 nM Ub-Lys(TAMRA)-Gly, nonlinear regression to kobs = kinact/(1 + (Ki/x)).

`N#CN1CC[C@@H](NC(=O)c2cc(-c3ccccc3Oc3ccc(N=[N+]=[N-])cc3)n[nH]2)C1` [IMP-2586]: at USP30 (setting [1]), the Ki was found to be 5.6 nM. The kinact/KI at USP30 came out at 3020 M⁻¹ s⁻¹. Besides, the “activity against UCHL1 (cross-screening)” value at UCHL1 is recorded as “no activity”.

For the compound `C#Cc1cccc(-c2cc(NC(=O)CC3CCN(C#N)C3)on2)c1` (stereo not shown) [IMP-2587], on USP30 (setting [1]), the KI (inactivation) was found to be 42.7 nM and the Ki was found to be 42.8 nM. Moreover, the kinact/KI at USP30 amounted to 5680 M⁻¹ s⁻¹. Moreover, at UCHL1, the “activity against UCHL1 (cross-screening)” value is on record as “no activity”.

In general, Ki refers to the equilibrium dissociation constant of an inhibitor or competing ligand from its target.
